{"source": "patent US7691582B2", "about": "“Methods of secretory vimentin detection and modulation” (The Regents of the University of Michigan, priority 2002, dated 2010)", "molecules": {"B1": {"name": "IL-10: anti-inflammatory cytokine, a potent inhibitor of activated macrophages (protein, UniProt P22301 19-178, looked up)", "Interleukin-10": "SPGQGTQSENSCTHFPGNLPNMLRDLRDAFSRVKTFFQMKDQLDNLLLKESLLEDFKGYLGCQALSEMIQFYLEEVMPQAENQDPDIKAHVNSLGENLKTLRLRLRRCHRFLPCENKSKAVEQVKNAFNKLQEKGIYKAMSEFDIFINYIEAYMTMKIRN"}}, "format_in_all_cases": "cell-based, human", "key": {"[1]": {"system": "vimentin proteolysis in MDM", "assay": "Vimentin proteolytic products in MDM, Western blot with V9", "conditions": "MDM treated with E-64 [100 µM], 12 h; FIG. 3e", "description": "Cells were maintained for 12-48 h in serum-free medium. When applicable, during the incubation in serum-free media cells were treated for 12 h with 10-500 ng ml^−1 IL-10, 0.5-5 ng ml^−1 TNF-α, 4 μg ml^−1 tunicamycin, E-64 [100 µM] (Sigma), or 2 or 4 μg ml^−1 monensin (Pharmingen). Alternatively, cells were treated for 2 h with GÖ 6983 [250 nM], SB 203580 [100 μM], or OA [100 nM] (Calbiochem) followed by 12 h incubation in serum-free media or treatment with TNF-α. The viability of the cells up to 48 h was almost 100% as measured by MTT assay (Boehringer Mannheim, Indianapolis, Ind.) and LDH release as previously described^12. Supernatants were collected and centrifuged for 20 min at 1500 RPM to remove cell debris and concentrated by a centrifugal filter device (Millipore) in the presence of a protease inhibitor cocktail (Boehringer Mannheim, Indianapolis, Ind.) and were either used immediately or stored at −70° C. Cells were washed and lysed with 1 ml lysis buffer (50 mM Tris pH 7.5, 150 mM NaCl, 1% NP-40 0.1% SDS, 0.5% Na-Deoxycholate and complete EDTA-free protease inhibitor cocktail) was added to the cells and allowed to incubate on ice for 15 min. […] Chemiluminescent signal was detected using the Super Signal West Pico system (Pierce Chemical Co, Rockford, Ill.)."}, "[2]": {"system": "secretion of vimentin from MDM", "assay": "Vimentin secretion by MDM, Western blot of supernatants", "conditions": "for vimentin secretion (vimentin in the supernatant): MDM treated 2 h with inhibitor (GÖ 6983 250 nM; SB 203580 100 μM), FIGS. 3c, 4a, 4b; for secretion of vimentin from the mature MDM: eleven day MDM, 40% human serum, monensin 2 or 4 μg ml−1 or tunicamycin 4 μg ml−1, 12 h, FIG. 2h", "description": "Monocyte-derived macrophages (MDMs) were prepared as previously described^40. Briefly, heparinized venous blood was collected upon consent from healthy volunteers, and peripheral blood mononuclear cells (PBMC) were separated by Ficoll-Hypaque (Pharmacia Biotech AB, Uppsala, Sweden) density gradient centrifugation. MDM were purified by adherence to plastic for 2 hat […] at a concentration of 5×10^5 ml^−1. Adherent cells were consistently >90% monocytes as described^40. Adherence-purified human monocytes were cultured in X-vivo medium supplemented with 40% human AB serum (Bio-Whittaker, Walkersville, Md.) and 100 units of penicillin and 50 units of streptomycin per ml^12.\nCells were maintained for 12-48 h in serum-free medium. When applicable, during the incubation in serum-free media cells were treated for 12 h with 10-500 ng ml^−1 IL-10, 0.5-5 ng ml^−1 TNF-α, 4 μg ml^−1 tunicamycin, E-64 [100 µM] (Sigma), or 2 or 4 μg ml^−1 monensin (Pharmingen). Alternatively, cells were treated for 2 h with GÖ 6983 [250 nM], SB 203580 [100 μM], or OA [100 nM] (Calbiochem) followed by 12 h incubation in serum-free media or treatment with TNF-α. The viability of the cells up to 48 h was almost 100% as measured by MTT assay (Boehringer Mannheim, Indianapolis, Ind.) and LDH release as previously described^12. Supernatants were collected and centrifuged for 20 min at 1500 RPM to remove cell debris and concentrated by a centrifugal filter device (Millipore) in the presence of a protease inhibitor cocktail (Boehringer Mannheim, Indianapolis, Ind.) and were either used immediately or stored at −70° C. Cells were washed and lysed with 1 ml lysis buffer (50 mM Tris pH 7.5, 150 mM NaCl, 1% NP-40 0.1% SDS, 0.5% Na-Deoxycholate and complete EDTA-free protease inhibitor cocktail) was added to the cells and allowed to incubate on ice for 15 min. The lysate was centrifuged at 10,000 rpm for 20 min at 4° C., the supernatant recovered, and the protein extract was either used immediately or stored at −70° C. Equal amounts of protein (20 μg) were loaded under reducing conditions and separated by 10% SDS PAGE. The gel was transferred to nitrocellulose and immunoblotted with mouse monoclonal anti-vimentin antibody V9 (Research Genetics, Inc), goat anti-vimentin antibody (Chemicon International, Calif.) or goat anti-actin (Santa-Cruz Biotechnology, Inc) followed by a horseradish peroxidase-conjugated appropriate secondary antibody. Chemiluminescent signal was detected using the Super Signal West Pico system (Pierce Chemical Co, Rockford, Ill.)."}, "[3]": {"system": "phosphorylated vimentin in MDM", "assay": "Immunoprecipitation with anti-phospho-(Ser/Thr) antibody, vimentin detected by V9", "conditions": "7 day MDM in 10% serum; okadaic acid 100 nM or GÖ 6983 250 nM, 2 h; FIG. 4d"}, "vimentin in 12 day MDM": {"system": "vimentin in 12 day MDM", "assay": "In vivo phosphorylation of vimentin, [32P] orthophosphate incorporation in 12 day MDM", "conditions": "GÖ 6983 250 nM or OA 100 nM during [32P] labeling, Western blot of same membrane, FIG. 4e", "description": "12 day MDM (1.5×10^6) were rinsed three times with phosphate-free RPMI medium (Gibco-BRL, Grand Island, N.Y.). Cells were incubated in 5 ml of phosphate-free RPMI media and allowed to equilibrate at 37 ° C. in a 6 well plate for 2 h. The media was replaced with 1 ml/well of phosphate-free RPMI media with 10% dialysed human serum and 0.166 mCi of [^32P] orthophosphoric acid (Amersham Pharmacia Biotech) for 6 h of incubation. In addition to the control, some wells were treated with GÖ 6983 [250 nM] or OA [100 nM]. Following treatment, medium was removed and replaced by serum free medium for 18 h. Supernatant and cells were prepared for immunoprecipitation as described above (Metabolic Labeling section). Phosphorylated vimentin protein was immunoprecipitated as above, and the samples were separated by 10% SDS-PAGE electrophoresis under reducing conditions. Proteins were transferred to nitrocellulose and subjected to autoradiography for 4 h then immunoblotted with mouse monoclonal anti-vimentin antibody (Research Genetics, Inc.), stripped and re-probed with goat polyclonal anti-vimentin antibody (Chemicon International, Calif.), followed by horseradish peroxidase-conjugated goat anti-mouse or rabbit anti-goat secondary antibodies. Chemiluminescent signal was detected using the Super Signal West Pico system (Pierce Chemical Co, Rockford, Ill.)."}, "[4]": {"system": "secretion of vimentin from MDM", "assay": "Vimentin secretion by MDM, Western blot of supernatants"}}, "note": "“Also recorded” adds a separate entry of the source.", "data": [{"molecule": "CC(C)C[C@H](NC(=O)[C@H]1O[C@@H]1C(=O)O)C(=O)NCCCCN=C(N)N", "note": "[E-64]", "values": [{"measurement": "vimentin proteolytic products, intracellularly and in the supernatant", "setting": "[1]", "value": "marked decrease"}]}, {"molecule": "COc1ccc2c(c1)c(C1=C(c3c[nH]c4ccccc34)C(=O)NC1=O)cn2CCCN(C)C", "note": "[GÖ6983]", "values": [{"measurement": "secretion of vimentin in the presence of TNF-α", "setting": "[2]; 40% serum treated MDM, GÖ6983 followed by TNF-α", "value": "not blocked"}, {"measurement": "vimentin secretion (vimentin in the supernatant)", "setting": "[2]", "value": "almost completely blocked; also recorded: significantly blocked"}, {"measurement": "amount of actin detected in the supernatants", "setting": "[2]; eleven day MDM with or without GÖ6983, FIG. 3c", "value": "does not modify the amount of actin"}, {"measurement": "amount of phosphorylated vimentin in cells (cytoplasm) and supernatant", "setting": "[3]", "value": "markedly decreased the amount of phosphorylated vimentin in the cytoplasm as well as in the supernatant"}, {"measurement": "secretion of vimentin (62 kD and 52 kD forms)", "setting": "vimentin in 12 day MDM", "value": "eliminated essentially all the secretion of vimentin"}, {"measurement": "OA-enhanced vimentin secretion", "setting": "[4]; 7 day MDM in 10% serum, preincubated with GÖ 6983 250 nM 2 h prior to OA 100 nM, FIG. 4b", "value": "partially decreased"}]}, {"molecule": "CC[C@@]1([C@@H]2O[C@@H]([C@H]3O[C@@](O)(CO)[C@H](C)C[C@@H]3C)C[C@@H]2C)CC[C@H]([C@]2(C)CC[C@]3(C[C@H](O)[C@@H](C)[C@@H]([C@@H](C)[C@@H](OC)[C@H](C)C(=O)O)O3)O2)O1", "note": "[Monensin, monensin]", "values": [{"measurement": "secretion of vimentin from the mature MDM", "setting": "[2]", "value": "eliminate secretion of vimentin"}]}, {"molecule": "C=C1[C@@H](O)[C@@H]2O[C@]3(CC[C@H](/C=C/[C@@H](C)[C@@H]4CC(C)=C[C@@]5(O[C@H](C[C@@](C)(O)C(=O)O)CC[C@H]5O)O4)O3)CC[C@H]2O[C@@H]1[C@@H](O)C[C@H](C)[C@H]1O[C@@]2(CCCCO2)CC[C@H]1C", "note": "[OA, okadaic acid]", "values": [{"measurement": "extracellular vimentin levels", "setting": "[2]; 10 day MDM in 40% serum, okadaic acid 100 nM, 2 h, FIG. 4a", "value": "led to an increase in extracellular vimentin levels"}, {"measurement": "amount of phosphorylated vimentin in cells (cytoplasm) and supernatant", "setting": "[3]", "value": "increase in phosphorylated vimentin in the supernatants but not in the cells"}, {"measurement": "secretion of vimentin (62 kD and 52 kD forms)", "setting": "vimentin in 12 day MDM", "value": "preferentially enhances secretion of the 52 kD form"}, {"measurement": "increase in vimentin secretion", "setting": "[4]; 7 day MDM in 10% serum, okadaic acid 100 nM, 2 h, FIG. 4b", "value": "> 10", "unit": "fold"}]}, {"molecule": "C[S+]([O-])c1ccc(-c2nc(-c3ccncc3)c(-c3ccc(F)cc3)[nH]2)cc1", "note": "(stereo not shown) [SB203580]", "values": [{"measurement": "vimentin secretion (vimentin in the supernatant)", "setting": "[2]", "value": "did not block secretion"}]}, {"molecule": "TNF-α", "values": [{"measurement": "induction of secretion of vimentin", "setting": "[4]; 1 day human monocytes in 10% human serum, TNF-α 0.5, 1 or 5 ng ml−1, 12 h, densitometry, FIGS. 5b, 5c", "value": "up to 120 fold"}]}, {"molecule": "tunicamycin", "values": [{"measurement": "secretion of vimentin from the mature MDM", "setting": "[2]", "value": "eliminate secretion of vimentin"}]}, {"molecule": "B1", "values": [{"measurement": "secretion of vimentin", "setting": "[2]; MDM in 40% human serum, IL-10 10, 50 or 500 ng ml−1, 12 h, FIG. 5a", "value": "markedly decreased the secretion of vimentin"}]}]}
